Assay results: article PMC7397269, “Synthesis and Evaluation of New Coumarin Derivatives as Antioxidant, Antimicrobial, and Anti-Inflammatory Agents” (Molecules, 2020)
Values after ≈ are worked out from the molar mass of the structure shown. Like-named read-outs stand apart in the source and are kept apart here.

Experiments:
[1] = system: trypsin; assay: Proteinase-inhibitory activity; type: biochemical; conditions: 250 µg/mL; mean ± SD (n = 3)
How it was run: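 Trypsin (0.06 mg per 2 mL, 20 mM Tris-HCl pH 7.4) was preincubated 5 min with test sample at 250 µg/mL, then 0.8% casein was added for 20 min. Perchloric acid stopped the reaction and supernatant absorbance was read at 280 nm. % inhibition is relative to the no-sample control, in triplicate.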

[2] = target: T1, COX-1 (Homo sapiens, UniProt P23219); assay: COX-1 inhibition, Cayman assay kit; type: biochemical; conditions: mean of two determinations
T1 construct: purchased Cayman Chemical 701070

[3] = system: Bacillus megaterium ATCC 9885; assay: Agar well diffusion, B. megaterium; type: cell-based; conditions: Priestia megaterium, ATCC9885, 100 μL of 10 mg/mL in DMSO, read-out: diameter of inhibition zone, BM
How it was run: (§1)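 Values are mean inhibition zone diameters (mm) from triplicate plates incubated 24 h at 37 °C. Wells 10 mm wide held 100 μL of compound at 10 mg/mL in DMSO.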

[4] = system: Bacillus megaterium ATCC 9885; assay: MIC, two-fold serial dilution, B. megaterium; type: cell-based; conditions: Priestia megaterium, ATCC9885, read-out: Minimum inhibitory concentration, BM
Source text: (§2) The new molecules were individually tested for their antimicrobial activity in vitro against standard bacteria strains from the American Type Culture Collection (ATCC), namely, Staphylococcus aureus ATCC 29213, Bacillus subtilis ATCC 6633, Bacillus megaterium ATCC 9885 (Gram-positive), Escherichia coli ATCC 2592, and Pseudomonas aeruginosa ATCC 27,953 (Gram-negative). The compounds were also microbiologically tested against locally isolated Saccharomyces cerevisiae (yeast) and the standard Agricultural Research Service Culture Collection (NRRL) strain of the yeast-like pathogenic fungus Candida albicans NRRL Y-477. Primary screening was conducted using the agar well diffusion method using nutrient agar (NA) medium and Sabourand dextrose agar (SDA) medium for the tested pathological bacteria and yeast, respectively. […].
(§3) The bacteriostatic activity of the active compounds (having IZ > 16 mm) was then evaluated using the two-fold serial dilution technique. Two-fold serial dilutions of the tested compounds solutions were prepared using the proper nutrient broth to reach final concentrations of 1000, 500, 250, and 125 μg/mL. The tubes were then inoculated with the test microorganisms grown in their suitable broth at 37 °C for 24 h (1 × 10^8 CFU/mL for bacteria and 1 × 10^6 CFU/mL of yeast), 0.1 mL of the above inoculum was administered per 5 mL, and the tubes were incubated at 37 °C for 24 h. The lowest concentration showing no growth was taken as the MIC.

[5] = system: Saccharomyces cerevisiae local isolate; assay: MIC, two-fold serial dilution, S. cerevisiae; type: cell-based; conditions: read-out: Minimum inhibitory concentration, SC
How it was run: (§4)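 Broth tube dilution, two-fold, final 1000–125 μg/mL; inoculum 1 × 10^8 CFU/mL bacteria, 1 × 10^6 CFU/mL yeast (0.1 mL/5 mL); 37 °C, 24 h; MIC read as lowest conc. with no visible growth. Only agar-diffusion actives (IZ > 16 mm) tested.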

[6] = system: Pseudomonas aeruginosa ATCC 27,953; assay: MIC, two-fold serial dilution, P. aeruginosa; type: cell-based; conditions: ATCC27, read-out: Minimum inhibitory concentration, PA
Source text: as §2, §3

[7] = system: Candida albicans NRRL Y-477; assay: Agar well diffusion, C. albicans; type: cell-based; conditions: NRRLY477, 100 μL of 10 mg/mL in DMSO, read-out: diameter of inhibition zone, CA
How it was run: as §1

[8] = DPPH antioxidant assay (radical scavenging); type: biochemical; conditions: mean ± SD (n = 3)
How it was run: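 Compounds, starting at 200 μg/mL, were mixed with 0.2 mM methanolic DPPH and incubated 30 min in the dark at 25 °C; absorbance was read at 515 nm. % inhibition is background-corrected against DPPH-only control, with IC50 from curve fit. Runs were triplicate (mean ± SD), with ascorbic acid as positive control.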

[9] = system: Staphylococcus aureus ATCC 29213; assay: MIC, two-fold serial dilution, S. aureus; type: cell-based; conditions: ATCC29213, read-out: Minimum inhibitory concentration, SA
How it was run: as §4

[10] = system: Escherichia coli ATCC 2592; assay: MIC, two-fold serial dilution, E. coli; type: cell-based; conditions: ATCC2592, read-out: Minimum inhibitory concentration, EC
Source text: as §2, §3

[11] = system: Pseudomonas aeruginosa ATCC 27,953; assay: Agar well diffusion, P. aeruginosa; type: cell-based; conditions: ATCC27, 100 μL of 10 mg/mL in DMSO, read-out: diameter of inhibition zone, PA
How it was run: as §1

[12] = two-fold serial dilution, S. cerevisiae

T1 sequence (P23219 24-599): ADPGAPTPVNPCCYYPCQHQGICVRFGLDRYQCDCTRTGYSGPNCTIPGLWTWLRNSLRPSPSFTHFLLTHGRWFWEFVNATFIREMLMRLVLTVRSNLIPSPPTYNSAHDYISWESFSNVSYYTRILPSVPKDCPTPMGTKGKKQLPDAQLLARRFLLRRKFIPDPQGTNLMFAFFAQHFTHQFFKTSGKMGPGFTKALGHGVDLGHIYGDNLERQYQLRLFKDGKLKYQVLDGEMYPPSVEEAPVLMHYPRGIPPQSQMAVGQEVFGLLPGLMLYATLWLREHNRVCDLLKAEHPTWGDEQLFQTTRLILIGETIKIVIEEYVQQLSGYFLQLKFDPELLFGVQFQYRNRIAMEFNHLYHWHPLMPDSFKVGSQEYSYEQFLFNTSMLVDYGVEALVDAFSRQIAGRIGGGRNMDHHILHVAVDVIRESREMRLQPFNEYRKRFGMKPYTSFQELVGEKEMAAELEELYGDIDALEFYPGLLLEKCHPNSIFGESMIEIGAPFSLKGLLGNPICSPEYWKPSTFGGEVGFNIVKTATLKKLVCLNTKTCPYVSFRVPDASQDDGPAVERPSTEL

Row | SMILES | % Inhibition (proteinase) [1] [%] | IC50 [2] [µM] | zone of inhibition at 10000 µg/mL [3] [mm] | MIC [4] [µg/mL] | MIC [5, 12] [µg/mL] | MIC [6] [µg/mL] | zone of inhibition at 10000 µg/mL [7] [mm] | IC50 [8] | MIC [9] [µg/mL] | MIC [10] [µg/mL] | melting point [°C] | zone of inhibition at 10000 µg/mL [11] [mm] | MIC [5] [µg/mL]
1 | O=c1oc2ccc(Cl)cc2c(O)c1S(=O)(=O)Nc1ccccc1 [8a, 6-Chloro-4-hydroxy-2-oxo-N-phenyl-2H-chromene-3-sulfonamide] | 44.7 ± 8.22 | 25 | 29 | 250 (≈ 711 µM) | 250 (≈ 711 µM) | 500 (≈ 1420 µM) | 29 | 14.51 ± 1.827 µg/mL (≈ 41.2 µM) | 500 (≈ 1420 µM) | 500 (≈ 1420 µM) | 337 to 339 | 26 | –
2 | O=c1oc2ccc(Cl)cc2c(O)c1S(=O)(=O)Nc1ccc(S(=O)(=O)Nc2nccs2)cc1 [7e, 6-Chloro-4-hydroxy-2-oxo-N-(4-(N-(thiazol-2-yl)sulfamoyl)phenyl)-2H-chromene-3-sulfonamide] | 19.8 ± 2.54 | 29.6 | 25 | 500 (≈ 973 µM) | 1000 (≈ 1950 µM) | 1000 (≈ 1950 µM) | 23 | 71.67 ± 3.231 µg/mL (≈ 139 µM) | 500 (≈ 973 µM) | 500 (≈ 973 µM) | 215 to 217 | 22 | –
3 | Cc1ccc2oc(=O)c(S(=O)(=O)Nc3ccc(O)cc3)c(O)c2c1 [8d, 4-Hydroxy-N-(4-hydroxyphenyl)-6-methyl-2-oxo-2H-chromene-3-sulfonamide] | 20.15 ± 7.31 | 19.4 | 29 | 250 (≈ 720 µM) | 125 (≈ 360 µM) | 125 (≈ 360 µM) | 30 | 4.30 ± 0.531 µg/mL (≈ 12.4 µM) | 125 (≈ 360 µM) | 125 (≈ 360 µM) | 253 to 254 | 31 | –
4 | Cc1ccc2oc(=O)c3c(c2c1)OC(N)=C(C#N)C3c1ccc([N+](=O)[O-])cc1 (racemic) [2a, (±)-2-Amino-9-methyl-4-(4-nitrophenyl)-5-oxo-4H,5H-pyrano[3,2-c]chromene-3-carbonitrile] | 17.38 ± 1.63 | 117 | 25 | 500 (≈ 1330 µM) | – | 500 (≈ 1330 µM) | 22 | — ((—): inactive (IC50 > 200 μg/mL)) | 500 (≈ 1330 µM) | 1000 (≈ 2660 µM) | 259 to 261 | 20 | 500 (≈ 1330 µM)
5 | COc1cc(/C=N/C2=C(C#N)C(c3ccc([N+](=O)[O-])cc3)c3c(c4cc(C)ccc4oc3=O)O2)cc(OC)c1OC (racemic) [5c, (±)-9-methyl-4-(4-nitrophenyl)-5-oxo-2-((3,4,5-trimethoxybenzylidene)amino)-4H,5H-pyrano[3,2-c]chromene-3-carbonitrile] | 68.5 ± 6.23 | 18.5 | 24 | 500 (≈ 903 µM) | – | 500 (≈ 903 µM) | 24 | — ((—): inactive (IC50 > 200 μg/mL)) | 500 (≈ 903 µM) | 500 (≈ 903 µM) | 221 to 223 | 25 | 500 (≈ 903 µM)
6 | Cc1ccc2oc(=O)c(S(=O)(=O)Nc3ccc(S(=O)(=O)Nc4nccs4)cc3)c(O)c2c1 [7f, 4-Hydroxy-6-methyl-2-oxo-N-(4-(N-(thiazol-2-yl)sulfamoyl)phenyl)-2H-chromene-3-sulfonamide] | 43.88 ± 5.6 | 40.9 | 27 | 250 (≈ 507 µM) | 250 (≈ 507 µM) | 500 (≈ 1010 µM) | 24 | 83.52 ± 1.849 µg/mL (≈ 169 µM) | 250 (≈ 507 µM) | 500 (≈ 1010 µM) | 167 to 169 | 24 | –
7 | O=c1oc2ccc(Cl)cc2c(O)c1S(=O)(=O)Nc1ccc(S(=O)(=O)Nc2ncccn2)cc1 [7c, 6-Chloro-4-hydroxy-2-oxo-N-(4-(N-(pyrimidin-2-yl)sulfamoyl)phenyl)-2H-chromene-3-sulfonamide] | 8.9 ± 2.04 | 62.3 | 30 | 125 (≈ 246 µM) | 125 (≈ 246 µM) | 250 (≈ 491 µM) | 27 | 120.12 ± 4.629 µg/mL (≈ 236 µM) | 125 (≈ 246 µM) | 125 (≈ 246 µM) | 230 to 232 | 24 | –
8 | NS(=O)(=O)c1ccc(NS(=O)(=O)c2c(O)c3cc(Cl)ccc3oc2=O)cc1 [7a, 6-Chloro-4-hydroxy-2-oxo-N-(4-sulfamoylphenyl)-2H-chromene-3-sulfonamide] | 18.78 ± 2.05 | 239 | 25 | 500 (≈ 1160 µM) | 250 (≈ 580 µM) | 250 (≈ 580 µM) | 26 | 93.12 ± 0.727 µg/mL (≈ 216 µM) | 250 (≈ 580 µM) | 250 (≈ 580 µM) | 245 to 247 | 27 | –
9 | Cc1ccc2oc(=O)c3c(c2c1)OC(/N=C/c1ccc(Cl)cc1Cl)=C(C#N)C3c1ccco1 (racemic) [5f, (±)-2-((2,4-dichlorobenzylidene)amino)-4-(furan-2-yl)-9-methyl-5-oxo-4H,5H-pyrano[3,2-c]chromene-3-carbonitrile] | 26.83 ± 5.33 | 90.2 | 20 | 1000 (≈ 2100 µM) | – | 1000 (≈ 2100 µM) | 22 | — ((—): inactive (IC50 > 200 μg/mL)) | 500 (≈ 1050 µM) | 1000 (≈ 2100 µM) | > 300 | 21 | 500 (≈ 1050 µM)
